Non-standard residues stand in square brackets, D forms with d. Residues, ends and D or L forms follow the SMILES beside them. *: point of attachment. PEG8 = NCCOCCOCCOCCOCCOCCOCCOCCOCCC(=O)O; Palmitoyl = CCCCCCCCCCCCCCCC(=O)*; Tic = O=C(O)[C@@H]1Cc2ccccc2CN1
Assays:
Male FVB mice = assay: Ovalbumin sensitization and aerosol challenge model of allergic airway inflammation; format: in vivo, mouse; settings: Day 18
Source text: Representative photographs are taken at 20× magnification. (C) Lung tissue sections at Day 18 were obtained from fixed, paraffin-embedded lung tissue stained with hematoxylin and eosin. Representative photographs are taken at both 20× and 40×. (D) Total BALF cells and leukocyte subsets were quantified on Day 18 and compared between mice receiving DMSO or l-Stable Chem. Data are representative of the mean±S.E.M. from n=3-8 mice per group. Comparison of DMSO control to l-Stable Chem: *p<0.05.
Male FVB mice age 5-7 weeks (Charles River Laboratories) were housed under viral antibody-free conditions. Ovalbumin (OVA) sensitization and drug administration were performed as previously described with slight modifications. Briefly, mice were sensitized with intraperitoneal injection of 10 μg OVA (Grade III: Sigma) on days 0 and 7. On days 14, 15, 16, and 17, mice received a 25 minute aerosol challenge of 6% (wt/vol) OVA each day. On each of these days, 30 min prior to OVA challenge, mice were given 20 μL of lipidated stable chemerin (21 mM stock in DMSO diluted 1:100 in saline for a final concentration of 210 μM) by the intranasal route. Corresponding controls received DMSO diluted 1:100 in saline. On day 18 or 22, bronchoalveolar lavage fluid (BALF) was collected; animals were sacrificed for histological assessment. […] Cells in BALF were resuspended in PBS and counted with a hemocytometer; cytospins were done via cytocentrifugation (265 g; StatSpin). Cells from the cytospin were stained with Wright-Giemsa stain (Sigma) for quantification of leukocyte subsets. At least 200 cells were counted per slide. […] On the 5th day (corresponding to day 18), mice were sacrificed and BALF collected and analyzed as described above.
Given the high potency, stability, and wash resistance of the lipidated stable chemerin analog, the anti-inflammatory activity of this compound in vivo was examined. […] Markers of inflammation were assessed at day 18 (time course: FIG. 6A).

Adult CD1 mice = assay: Chronic constriction injury neuropathic pain model, von Frey and acetone tests; format: in vivo, mouse; settings: intrathecal 100 pmol, 1 week after nerve injury
Source text: Intrathecal injection of 1-stable chem (100 pmol), 1 week after CCI, reduces CCI-induced mechanical hypersensitivity (panels A+C) and cold allodynia (panel E). Intrathecal injection of ResolvinE1 (RvE1)(100 pmol), 1 week after CCI, reduces CCI-induced mechanical hypersensitivity (panels B+D) and cold allodynia (panel F). BL=baseline before surgery.
Adult CD1 mice (male, 25-35 g) were used for behavioral studies. Mice were group-housed and kept under a 12-hour light/dark cycle. […]
Nerve injury-induced mechanical allodynia and hypersensitivity were assessed by von Frey hairs as previously described (see Xu et al., Resolvin E1 inhibits neuropathic pain and spinal cord microglial activation following peripheral nerve injury, 2013, J. Neuroimmune Pharmacol, 8: 37-41). […] The 50% paw withdrawal threshold (PWT) was determined using Dixon's up-down method. For paw withdrawal frequency (PWF), the same von Frey hair (0.16 g) was applied 10 times and the number of positive responses to the stimulations counted. A positive response was scored if the mouse sharply withdrew the paw or flinched upon removal of the stimulus. […] In brief, a drop of acetone was placed against the plantar paw of the mouse and the mouse's response monitored for the next 20 seconds. […]

[1] = tested on: HEK293 cells transfected with vector control (pcDNA1.1); assay: Luciferase reporter assay in cells transfected with vector control; format: cell-based, human; settings: cells transfected with pcDNA1.1 vector control
Protocol: (§1) Receptor-mediated signaling was assessed as previously described. Briefly, HEK293 cells were plated at a density of 6,000 cells/well into 96-well clear-bottom plates and grown to ˜80% confluence. […] Expression of Gq5i66V directs signaling of the Gαi-coupled chemerin receptor to stimulation of a Gαq-dependent SRE5x-Luc-PEST reporter gene. For experiments investigating the agonist function of soluble and lipidated peptides, tethered ligand cDNA was not included in the transfection mixture. Twenty four hours after transfection, cells were stimulated with or without peptide agonist for 4 hours in serum-free medium. […] Following ligand stimulation, the media was aspirated and luciferase activity measured using SteadyLite reagent and quantified using a TopCount NTX. A β-galactosidase assay was then performed following assessment of luminescence. Cleavage of 2-nitrophenyl β-D-galactopyranoside substrate was quantified after incubation of cell lysates at 37° C. for 30 to 60 minutes by measuring the optical density at 420 nm on a SpectraMax microplate reader. Luciferase reporter gene activities were normalized to corresponding β-galactosidase activity controls.

human CMKLR1 [2] = molecular target: T1, human CMKLR1 (Homo sapiens, UniProt Q99788); assay: SRE-luciferase reporter gene assay in transfected HEK293 cells; settings: pEC50, Human CMKLR1, no wash; mean ± S.E.M.
T1 sequence (Q99788 1-373): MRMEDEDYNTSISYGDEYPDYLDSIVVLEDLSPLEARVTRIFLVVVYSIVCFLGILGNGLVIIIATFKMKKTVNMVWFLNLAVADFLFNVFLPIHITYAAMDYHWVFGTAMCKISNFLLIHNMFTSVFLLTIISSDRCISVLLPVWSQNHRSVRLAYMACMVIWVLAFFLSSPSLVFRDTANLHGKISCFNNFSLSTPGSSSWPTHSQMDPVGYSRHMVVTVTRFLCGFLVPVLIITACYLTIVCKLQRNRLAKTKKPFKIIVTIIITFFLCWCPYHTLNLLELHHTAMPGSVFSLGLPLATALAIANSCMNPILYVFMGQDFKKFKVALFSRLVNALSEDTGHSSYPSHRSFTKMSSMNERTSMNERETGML
Protocol: as §1
(§2) HEK293 cells were transiently transfected with cDNAs encoding i) human or mouse CMKLR1, ii) a SRE5x-Luc reporter gene, iii) a Gαq5i66V chimera, and iv) a β-galactosidase control. Twenty-four hours after transfection, cells were stimulated with ligand for 4 hours and luciferase activity determined as described in Experimental Procedures. Luciferase activity was normalized relative to the maximal value observed using saturating concentrations of the corresponding soluble ligand (=100%). […] As a next step, the effect of membrane anchoring on chemerin activity was examined. […] HEK293 cells were transiently transfected with cDNAs encoding i) various tethered ligands, ii) human or mouse CMKLR1, iii) a SRE5x-Luc reporter gene, iv) aGαq5i66V chimera, and v) a β-galactosidase control. Twenty-four hours after transfection, luciferase activity was determined as described in Experimental Procedures.
(§3) HEK293 cells were transiently transfected with cDNAs encoding i) 8 ng of various tethered ligands, ii) human or mouse CMKLR1, iii) a SRE5x-Luc reporter gene, iv) a Gαq5i66V chimera, and v) a β-galactosidase control. Twenty-four hours after transfection, luciferase activity was determined as described in Experimental Procedures.

mouse CMKLR1 [3] = molecular target: T2, mouse CMKLR1 (Mus musculus, UniProt P97468); assay: as above
T2 sequence (P97468 1-371): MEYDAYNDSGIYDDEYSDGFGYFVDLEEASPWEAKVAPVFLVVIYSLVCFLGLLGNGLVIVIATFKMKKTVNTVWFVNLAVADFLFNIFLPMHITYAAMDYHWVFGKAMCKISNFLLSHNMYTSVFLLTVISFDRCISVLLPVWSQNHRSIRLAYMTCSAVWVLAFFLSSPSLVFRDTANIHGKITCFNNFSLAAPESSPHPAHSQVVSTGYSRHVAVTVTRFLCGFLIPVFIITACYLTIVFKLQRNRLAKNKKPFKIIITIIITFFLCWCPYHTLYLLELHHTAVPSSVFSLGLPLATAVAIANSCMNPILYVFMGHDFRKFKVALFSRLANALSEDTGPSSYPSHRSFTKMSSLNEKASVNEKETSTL
Protocol: as §1, §2, §3

human CMKLR1 [4] = molecular target: T1, human CMKLR1; assay: Washout experiments (serial washes after 15 min ligand, luciferase readout)
Protocol: (§4) Agonist activity was compared with and without serial washings shortly after addition of ligand. Briefly, HEK293 cells were plated and transfected as described above with the addition of a poly-L-lysine plate pretreatment step to enhance cell adhesion. Twenty-four hours after transfection, cells were stimulated with increasing concentrations of agonist for 15 minutes at 37° C. Selected wells were washed three times with serum-free media. Plates were then incubated for an additional 4 hours. Receptor mediated signaling was assessed using a luciferase based assay as described above.
(§5) HEK293 cells were transiently transfected with cDNAs encoding i) human or mouse CMKLR1, ii) a SRE5x-Luc reporter gene, iii) a Gαq5i66V chimera, and iv) a β-galactosidase control. Twenty-four hours after transfection, cells were stimulated with increasing concentrations of various ligands for 15 minutes. Selected wells were then washed three times with serum-free media and plates were further incubated for 4 hours.

mouse CMKLR1 [5] = molecular target: T2, mouse CMKLR1; assay: as above
Protocol: as §4, §5

[6] = three washes after 15 min ligand

## CCCCCCCCCCCCCCCC(=O)NCCOCCOCCOCCOCCOCCOCCOCCOCCC(=O)NCC(=O)NCC(=O)N[C@H](Cc1ccc(O)cc1)C(=O)N[C@@H](Cc1ccccc1)C(=O)N[C@@H](CC(C)C)C(=O)N1CCC[C@H]1C(=O)N[C@H](CO)C(=O)N[C@@H](CCC(N)=O)C(=O)N[C@@H](Cc1ccccc1)C(=O)N[C@H](C)C(=O)N1Cc2ccccc2C[C@H]1C(=O)N[C@@H](CO)C(=O)O [I-Stable Chem] ({Palmitoyl-PEG8}-GG[dY]FLP[dS]QF[dA][Tic]S-OH)
Male FVB mice; in comparison to DMSO controls
  Lung inflammatory response (H+E staining): Less leukocyte infiltration and fewer reactive bronchial epithelial cells
Male FVB mice; intranasal, 30 min prior to OVA challenge, versus DMSO
  Number of eosinophils in bronchoalveolar lavage fluid: decreased
Male FVB mice; versus DMSO control
  Airway epithelial mucus (PAS staining): most pronounced attenuation of mucus metaplasia
Adult CD1 mice
  Duration of significant reduction of established mechanical and cold allodynia: greater than 24 hours
[1]
  Agonist activity without CMKLR1 expression: no agonist activity
Human CMKLR1 [2]
  EC50: 2.57 nM
Mouse CMKLR1 [3]; EC50 (nM), Mouse CMKLR1, no wash, HEK293 luciferase reporter
  EC50: 2 nM
Mouse CMKLR1 [3]; pEC50, Mouse CMKLR1, no wash, mean ± S.E.M.
  EC50: 2 nM
Human CMKLR1 [4]; pEC50, Human CMKLR1, + wash, washed three times after 15 min ligand, then 4 hours
  EC50: 25.1 nM
Human CMKLR1 [4]; [6]
  Agonist activity after serial washes, human CMKLR1: persisted despite washing
Mouse CMKLR1 [5]; pEC50, Mouse CMKLR1, + wash, washed three times after 15 min ligand, then 4 hours
  EC50: 11 nM
Mouse CMKLR1 [5]; [6]
  Agonist activity after serial washes, mouse CMKLR1: persisted despite washing

Reference: patent publication US11254720B2, “Methods and systems for designing and/or characterizing soluble lipidated ligand agents” (Tufts Medical Center, priority 2013, dated 2022)
